Test results published in patent US20200405697A1, “Antitumor Agent” (Taiho Pharmaceutical Co., Ltd, priority 2017, published 2020).

Experiments:
GB-1 cells = assay: Cell proliferation inhibitory effect on human cancer cell lines: GB-1; format: cell-based; conditions: GB-1, Glioblastoma, DMEM + 10% FBS, 3000 cell/well
Protocol: (§1) Human derived breast cancer cell line HCC 1806 cells (American Type Culture Collection, ATCC) were daily passaged at a cell density not exceeding 80% in ATCC recommended Roswell Park Memorial Institute medium (RPMI-1640) containing 10% fetal bovine serum (FBS). In order to start the test of cell proliferation inhibitory activity, HCC 1806 cells were suspended in the above medium, after seeing at 180 μL in each well of a 96-well flat bottom plate so that the number of cells per well was 2,000, the cells were cultured at 37° C. for 1 day in an incubator containing 5% carbon dioxide gas.
(§2) On the next day, the Example compound was dissolved in DMSO, and 20 μL of a drug additive solution diluted serially with distilled water to 10 times of the final concentration was added to each well of the culture plate of the cells, and the cells were cultured at 37° C. for 72 hours in an incubator containing 5% carbon dioxide gas. After culturing for 72 hours, 20 μL of glutaraldehyde was added to each well and allowed to stand for 30 minutes, then the plate was washed 10 times with water and was dried. 100 μL of a stain solution (0.05% crystal violet in a 20% methanol solution) was added to each well and allowed to stand for 30 minutes, then the plate was washed 10 times with water and was dried. 100 μL of an extract solution (0.1 N NaH2PO4: 100% ethanol=1:1) was added to each well and mixed, and the mixture was measured at a wavelength of 540 nm using a plate reader (MTP-450 manufactured by Corona Electric Co., Ltd.).
(§3) The growth inhibition rate was calculated from the following formula, and the concentration (IC50 (μM)) of a compound inhibiting 50% was determined.
(§4) According to the method of Test Example 2, the cell proliferation inhibitory effect on various cancer cell lines as described in Table 24 was evaluated. […]

[1] = molecular target: T1, human RNR (histidine tagged human M1 and human M2 proteins) (Homo sapiens, UniProt P23921); assay: Human RNR inhibition effect (dCDP formation from CDP); format: biochemical; conditions: 10 μM CDP, 37° C. for 30 minutes, read-out: RNR inhibitory activity IC50
T1 construct: made in house; host or cells: Escherichia coli
T1 sequence (P23921 1-792): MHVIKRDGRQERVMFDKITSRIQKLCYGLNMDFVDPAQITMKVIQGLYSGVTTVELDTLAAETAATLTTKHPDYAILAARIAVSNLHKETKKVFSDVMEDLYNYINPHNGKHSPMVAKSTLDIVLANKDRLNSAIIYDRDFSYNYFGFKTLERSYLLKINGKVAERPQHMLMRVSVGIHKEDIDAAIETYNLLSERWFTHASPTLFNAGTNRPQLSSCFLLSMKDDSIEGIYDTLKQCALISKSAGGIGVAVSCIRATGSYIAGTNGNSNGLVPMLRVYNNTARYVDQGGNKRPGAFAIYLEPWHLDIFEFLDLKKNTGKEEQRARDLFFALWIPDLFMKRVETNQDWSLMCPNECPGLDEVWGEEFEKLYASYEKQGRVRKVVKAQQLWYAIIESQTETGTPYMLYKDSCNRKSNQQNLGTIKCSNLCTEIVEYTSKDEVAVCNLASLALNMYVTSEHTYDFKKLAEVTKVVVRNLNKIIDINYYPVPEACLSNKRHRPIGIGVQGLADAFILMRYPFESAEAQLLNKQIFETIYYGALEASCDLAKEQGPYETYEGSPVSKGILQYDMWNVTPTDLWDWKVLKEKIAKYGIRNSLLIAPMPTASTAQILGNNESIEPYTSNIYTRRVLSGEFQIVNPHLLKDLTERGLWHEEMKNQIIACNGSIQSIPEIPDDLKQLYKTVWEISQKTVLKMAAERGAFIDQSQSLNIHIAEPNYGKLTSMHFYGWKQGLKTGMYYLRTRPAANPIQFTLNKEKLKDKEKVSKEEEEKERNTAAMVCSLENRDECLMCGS
In short: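 His-tagged human M1 (isoform 1) and N-terminal 59-aa-truncated M2 (isoform 2), E. coli-expressed, Ni-purified, preincubated 20 min with compound (1% DMSO). Reaction with 10 μM CDP, 2 mM ATP, 0.24 mM NADPH, 6 mM DTT, 4 mM Mg acetate, 100 mM KCl, 50 mM HEPES pH 7.2, 30 min at 37° C. dCDP formed quantified by reverse-phase HPLC after heat stop.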

MV-4-11 = assay: Antitumor effect in human-derived blood cancer cell line (MV-4-11) subcutaneous transplantation model (in vivo); parameters: species or system nude mouse (BALB/cA Jcl-nu/nu); conditions: oral, 100 mg/kg/day once per day for 14 days; RTV vs control group, Student-t test, p<0.05
Protocol: A human-derived blood cancer cell line MV-4-11 was transplanted subcutaneously into a nude mouse (BALB/cA Jcl-nu/nu, CLEA Japan, Inc.), and at the time when the tumor volume of the nude mouse on which the engrafted tumor reached 100 to 300 mm^3, four mice were assigned to each group by random stratification so that the average of the tumor volumes of each group was uniform (day 0), and the Example compound was orally administered daily at 100 mg/kg/day once per day for 14 days. Example Compound dosing solutions were prepared using 0.5% HPMC.
An electric balance for animals was used in body weight measurement. Rate of change in body weight on day n (BWCn) from body weight on day n (BWn) was calculated according to the following equation.
Rate of change in body weight BWCn (%)=(BWn−BW0)/BW0×100
Tumor volume (TV) was calculated according to the following equation by sandwiching and measuring the major axis and the minor axis with a digital caliper.
Tumor volume (mm^3)=Major axis (mm)×Minor axis (mm)×Minor axis (mm)/2
In order to compare the chronological transition of proliferation of tumor for the administration of each compound, relative tumor volume (RTV) setting the tumor volume at the time of grouping as 1 as the tumor proliferation rate was calculated according to the following formula, and the transition of the average value of RTV of each individual are shown in FIGS. 1 to 4.
RTV=(tumor volume at the day of tumor volume measurement)/(tumor volume at the time of the grouping)

A2780 cells = assay: Cell proliferation inhibitory effect on human cancer cell lines: A2780; format: cell-based; conditions: 72 h, A2780, Ovarian Cancer, RPMI-1640 + 10% FBS, 2000 cell/well
Protocol: as §1
(§5) On the next day, the Example compound was dissolved in DMSO, and 20 μL of a drug additive solution diluted serially with distilled water to 10 times of the final concentration was added to each well of the culture plate of the cells, and the cells were cultured at 37° C. for 72 hours in an incubator containing 5% carbon dioxide gas. […] 100 μL of an extract solution (0.1 N NaH2PO4: 100% ethanol=1:1) was added to each well and mixed, and the mixture was measured at a wavelength of 540 nm using a plate reader (MTP-450 manufactured by Corona Electric Co., Ltd.). […]
as §4

ACHN cells = assay: Cell proliferation inhibitory effect on human cancer cell lines: ACHN; format: cell-based; conditions: 72 h, Kidney Cancer, EMEM + 10% FBS, 2000 cell/well
Protocol: as §1, §5, §4

NCI-H460 cells = assay: Cell proliferation inhibitory effect on human cancer cell lines: NCI-H460; format: cell-based; conditions: 72 h, NCI-H460, Lung Cancer, ATCC recommended RPMI-1640 + 10% FBS, 1000 cell/well
Protocol: as §1, §5, §4

mouse leukemia models = conditions: combination with etoposide or cisplatin; Non-Patent Document 12; cited from earlier work
[2] = Non-Patent Document 10; cited from earlier work
[3] = system: non-small cell lung cancer cell line; conditions: combination with cytarabine or gemcitabine; Non-Patent Document 11; cited from earlier work
HCC 1806 cells = assay: Cell proliferation inhibitory effect on human breast cancer cell line; format: cell-based; conditions: HCC1806, 72 h, crystal violet, read-out: Cell growth suppression IC50
Protocol: as §1, §2, §3
Growth inhibition rate (%){(C-B)−(T-B)}(C-B)×100
T: Absorbance of well to which Example compound was added
C: Absorbance of wells to which no Example compound was added
B: Absorbance of wells to which no cell was added

RNR = molecular target: T2, RNR (Homo sapiens, UniProt P31350); conditions: Non-Patent Document 7; cited from earlier work
T2 sequence (P31350 1-389): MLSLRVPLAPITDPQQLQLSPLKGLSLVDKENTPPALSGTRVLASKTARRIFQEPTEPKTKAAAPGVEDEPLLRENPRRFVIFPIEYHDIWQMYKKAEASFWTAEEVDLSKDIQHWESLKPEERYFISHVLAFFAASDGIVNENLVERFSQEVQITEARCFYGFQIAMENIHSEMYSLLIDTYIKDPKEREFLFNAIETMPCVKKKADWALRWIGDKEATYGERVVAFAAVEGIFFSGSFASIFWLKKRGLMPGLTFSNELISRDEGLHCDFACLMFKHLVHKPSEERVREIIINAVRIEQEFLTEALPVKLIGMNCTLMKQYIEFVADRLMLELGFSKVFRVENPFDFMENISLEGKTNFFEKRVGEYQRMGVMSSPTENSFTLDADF

SMILES | IC50 (GB-1 cells) [nM] | IC50 [1] [nM] | antitumor effect (relative tumor volume, RTV) (MV-4-11) | further results
Cc1ccc(F)c([C@@H](C)[C@H](NS(=O)(=O)c2ccc(Cl)cc2C(N)=O)c2n[nH]c(=O)o2)c1C [Example 5] | 1570 | 140 | antitumor effect | 
[2H]C([2H])([2H])C1(O)CCOc2c(S(=O)(=O)N[C@H](c3n[nH]c(=O)o3)[C@H](C)c3c(F)ccc(C)c3C)ccc(Cl)c21 (single isomer, unassigned) [Example 200A] |  | 30 | antitumor effect | IC50 (A2780 cells): 130 nM; IC50 (ACHN cells): 130 nM; IC50 (NCI-H460 cells): 130 nM
NC(=S)NN=Cc1ncccc1N [Example 3-AP, 3-aminopyridine-2-carboxaldehyde thiosemicarbazone] |  |  |  | life extending effect in combination (mouse leukemia models): enhancement in life extending effect; side effects in clinical cases [2]: hypoxia, dyspnea, methemoglobinemia; cell proliferation inhibitory effect in combination [3]: enhancement in cell proliferation inhibitory effect
CCc1ccc(F)c([C@@H](C)[C@H](NS(=O)(=O)c2ccc(Cl)cc2C(N)=O)c2n[nH]c(=O)o2)c1C [Example 11, 5-chloro-2-(N-((1S,2R)-2-(3-ethyl-6-fluoro-2-methylphenyl)-1-(5-oxo-4,5-dihydro-1,3,4-oxadiazol-2-yl)propyl)sulfamoyl)benzamide] | 5220 | 180 | antitumor effect | 
[2H]C([2H])([2H])C1(O)CCOc2c(S(=O)(=O)N[C@H](c3n[nH]c(=O)o3)[C@H](C)c3c(F)ccc(Cl)c3C)ccc(Cl)c21 (single isomer, unassigned) [Example 228A] |  | 80 |  | IC50 (HCC 1806 cells): 140 nM
NC(=O)NO [HU, hydroxyurea] |  |  |  | RNR inhibitory activity (RNR): very weak
